# Columns and labels:
# [1] = test system: Rpd3L HDAC binary PPIs other than Sin3-Ume6; assay: GPCA binary PPI inhibition, other Rpd3L HDAC PPIs; type: cell-based, S. cerevisiae; details: 10 μM
# Protocol: GPCA (N1-N2 version) was implemented as reported in [Choi et al 2019]. HEK293T cells were seeded at 6×10^4 cells per well in 96-well, flat-bottom, cell culture microplates (Greiner Bio-One, #655083), and cultured in Dulbecco's modified Eagle's medium (DMEM) supplemented with 10% fetal calf serum at 37° C. and 5% CO2. Twenty-four hours later, cells were transfected with 100 ng of each GPCA plasmid (GPCA-N1 and GPCA-N2) using linear polyethylenimine (PEI) to co-express the protein pairs fused with complementary luciferase fragments, Luc1 and Luc2. The DNA/PEI ratio used for transfection was 1:3 (mass:mass). […] Luminescence was measured by auto-injecting 50 μL Renilla luciferase substrate (Renilla Luciferase Assay system, catalog No. E2820, Promega) per well and integrating light output for 4 s using a TriStar luminometer (Berthold).
# The ability of compounds to inhibit binary PPIs in the Sin3/Rpd3L HDAC complex was tested by GPCA in a high-throughput screening format. […] The luminescence signal for each PPI was measured by averaging the different DMSO replicates, and calculating the standard deviation of DMSO values for each interaction. […] For each interaction, a particular compound was scored as a PPI inhibitor when it decreased its luminescence signal by at least three standard deviations compared to the corresponding averaged DMSO value. […]
# [2] = test system: full-length G. princeps luciferase; assay: GPCA control with full-length luciferase; type: cell-based, Gaussia princeps; details: 16 h
# Protocol: The ability of compounds to inhibit binary PPIs in the Sin3/Rpd3L HDAC complex was tested by GPCA in a high-throughput screening format. Interactions identified in the mapping at 1.0% […]2 detection cutoff were reconstituted by expressing protein pairs in the exact same orientations. […] HEK293T cells were transfected with 100 ng of each GPCA plasmid expressing either protein X, or protein Y, as described above. […] The luminescence signal for each PPI was measured by averaging the different DMSO replicates, and calculating the standard deviation of DMSO values for each interaction. For each PPI, an individual data point for every compound tested was obtained and this value was compared to the averaged DMSO value. For each interaction, a particular compound was scored as a PPI inhibitor when it decreased its luminescence signal by at least three standard deviations compared to the corresponding averaged DMSO value. […] 50 μL/well of the Renilla luciferase substrate (Renilla Luciferase Assay system, cat #E2820, Promega) were then added and luminescence was read approximately two minutes after injection using a Centro XS^3 LB960 plate reader (3 s integration). For each plate, signal was measured twice and the first measurement was used for calculations. Results were normalized by averaging raw luminescence values from DMSO wells and dividing each data point by this averaged value.
# [3] = Mouse liver microsome stability test; type: in vitro ADME; details: 1 mg/mL hepatic microsomes
# Protocol: Mouse liver microsome (MLM) half-life measurements were performed by Scripps Florida Pharmacology Core, according to their protocols [Lamberto et al 2017]. 1 mg/mL hepatic microsomes was used to test compounds.
# To assess whether E6R may be suitable for testing the effect of HDAC inhibition via new mechanisms in mouse, the half-life […] and intrinsic clearance (Clint) of this compound was first measured using a standard microsomal metabolic assay where sunitinib was used as a control [Lamberto et al 2017]. In this setting, compound degradation is induced by concentrated microsomes isolated from mouse liver. In particular, these hepatic extracts contain the cytochrome P450 system that is primarily responsible for first pass metabolism in vivo.
# [4] = test system: cycloheximide (CYH) sensitivity; assay: Yeast cycloheximide sensitivity at 37° C.; type: cell-based, S. cerevisiae
# Protocol: For assessment of cycloheximide (CYH) sensitivity at 37° C., yeast cells with the cyh2^R genotype (FIG. 29) were first transformed with an empty pDEST-AD-TRP1-CYH2 plasmid (FIG. 30) before running the different experiments. Selection of the plasmid was maintained by culturing cells in SC-W medium.
structure (smiles),measurement,setting,value
CC(NC(=O)c1c(O)n2ccccc2nc1=O)c1ccccc1 (racemic) [E6],effect on all other PPIs,[1],unperturbed
same,effect on full-length G. princeps luciferase,[2],does not perturb
"C[C@@H](NC(=O)c1c(O)n2ccccc2nc1=O)c1ccccc1 [E6R, 4-hydroxy-2-oxo-N—((R)-1-phenylethyl)-3,4-dihydro-2H-pyrido[, 2-a]pyrimidine-3-carboxamide]",half-life in mouse liver microsomes,[3],17 min
"CC(/C=C/C(=O)NO)=C\[C@@H](C)C(=O)c1ccc(N(C)C)cc1 [TSA, trichostatin A]",CYH sensitivity,[4],induced
